According to US7875587B2, “Peptide analogues of GIP for treatment of diabetes, insulin resistance and obesity” (UUTECH Limited, priority 2004, dated 2011):
No end group written: not given here.

Experiments:
BRIN-BD11 cells = experiment: Acute tests for insulin secretion from BRIN-BD11 cells; type: cell-based; conditions: 5.6 and 16.7 mM glucose, 10^-13 to 10^-8 M peptide
Experimental: Culture of insulin secreting cells. BRIN-BD11 cells were cultured in sterile tissue culture flasks (Corning, Glass Works, UK) using RPMI-1640 tissue culture medium containing 10% (v/v) foetal calf serum, 1% (v/v) antibiotics (100 U/ml penicillin, 0.1 mg/ml streptomycin) and 11.1 mM glucose. The cells were maintained at 37° C. in an atmosphere of 5% CO2 and 95% air using a LEEC incubator (Laboratory Technical Engineering, Nottingham, UK).
Acute tests for insulin secretion. Before experimentation, the cells were harvested from the surface of the tissue culture flasks with the aid of trypsin/EDTA (Gibco), seeded into 24-multiwell plates (Nunc, Roskilde, Denmark) at a density of 1.5×10^5 cells per well, and allowed to attach overnight at 37° C. Acute tests for insulin release were preceded by 40 minutes pre-incubation at 37° C. in 1.0 ml Krebs Ringer bicarbonate buffer (115 mM NaCl, 4.7 mM KCl, 1.28 mM CaCl2, 1.2 mM KH2PO4, 1.2 mM MgSO4, 10 mM NaHCO3, 5 g/l bovine serum albumin, pH 7.4) supplemented with 1.1 mM glucose. Test incubations were performed (n=12) at two glucose concentrations (5.6 mM and 16.7 mM) with a range of concentrations (10^−13 to 10^−8 M) of GIP or GIP analogues. After 20 minutes incubation, the buffer was removed from each well and aliquots (200 μl) were used for measurement of insulin by radioimmunoassay.

DPP IV = biological target: T1, DPP IV (Sus scrofa, UniProt P22411); experiment: DPP IV degradation studies of fatty acid derivatised GIP analogues; type: in vitro ADME, porcine; conditions: pig, isolated enzyme dpp iv, pH 7.8, incubation with DPP IV, read-out: % Intact peptide remaining after time (hours)
T1 construct: purchased Sigma (Poole, Dorset, UK)
T1 sequence (P22411 whole entry): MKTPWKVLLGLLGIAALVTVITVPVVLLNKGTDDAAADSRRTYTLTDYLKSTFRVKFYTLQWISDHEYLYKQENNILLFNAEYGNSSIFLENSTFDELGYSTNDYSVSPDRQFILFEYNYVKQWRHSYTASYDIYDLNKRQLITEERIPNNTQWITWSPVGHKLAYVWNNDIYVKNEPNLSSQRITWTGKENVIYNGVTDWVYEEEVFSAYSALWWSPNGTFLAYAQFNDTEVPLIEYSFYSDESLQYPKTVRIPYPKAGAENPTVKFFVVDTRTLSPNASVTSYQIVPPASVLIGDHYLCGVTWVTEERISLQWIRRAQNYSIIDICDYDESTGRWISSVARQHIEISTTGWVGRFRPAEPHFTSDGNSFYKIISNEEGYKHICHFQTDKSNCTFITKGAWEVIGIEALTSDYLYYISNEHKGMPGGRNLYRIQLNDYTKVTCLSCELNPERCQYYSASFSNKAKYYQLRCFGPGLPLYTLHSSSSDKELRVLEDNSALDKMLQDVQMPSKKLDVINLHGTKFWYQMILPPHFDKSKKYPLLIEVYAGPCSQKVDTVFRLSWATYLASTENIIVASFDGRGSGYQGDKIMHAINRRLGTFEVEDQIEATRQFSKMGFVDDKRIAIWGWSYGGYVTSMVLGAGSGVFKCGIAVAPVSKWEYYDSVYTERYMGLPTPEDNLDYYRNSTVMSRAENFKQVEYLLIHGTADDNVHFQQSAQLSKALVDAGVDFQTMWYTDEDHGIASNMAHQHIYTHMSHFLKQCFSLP
Experimental: DPP IV degradation studies. GIP and fatty acid derivatised GIP analogues were incubated at 37° C. with purified porcine dipeptidylpeptidase IV (5 mU in 50 mmol/l triethanolamine-HCl; pH 7.8) for 0, 2, 4, 8 and 24 hours (final peptide concentration 2 mmol/l). The reactions were subsequently terminated by addition of 10% (v/v) TFA/water and the reaction products separated using HPLC. […] HPLC peak area data were used to calculate % intact peptide remaining throughout the incubation.

human GIP receptor = biological target: T2, human GIP receptor (Homo sapiens, UniProt P48546); experiment: GIP-stimulated cyclic AMP generation in GIP receptor transfected CHL cells (antagonism); type: cell-based; conditions: in the presence of native GIP (10^-7 M)
T2 construct: expressed in transfected cells; host or cells: Chinese hamster lung (CHL) fibroblasts, stably transfected
T2 sequence (P48546 22-466): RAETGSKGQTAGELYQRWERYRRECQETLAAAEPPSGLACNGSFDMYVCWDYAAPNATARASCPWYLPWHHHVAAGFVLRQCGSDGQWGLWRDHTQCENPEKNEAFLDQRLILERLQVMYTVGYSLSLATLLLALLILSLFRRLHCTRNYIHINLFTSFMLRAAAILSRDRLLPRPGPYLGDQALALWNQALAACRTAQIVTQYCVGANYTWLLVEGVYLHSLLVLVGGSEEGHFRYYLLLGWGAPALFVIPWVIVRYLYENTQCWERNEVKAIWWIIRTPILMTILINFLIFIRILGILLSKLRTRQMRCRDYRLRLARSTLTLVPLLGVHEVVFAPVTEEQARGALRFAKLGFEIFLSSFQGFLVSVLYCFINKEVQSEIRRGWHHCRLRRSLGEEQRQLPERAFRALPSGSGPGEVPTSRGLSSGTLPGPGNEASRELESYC
Experimental: Tissue culture. Chinese hamster lung (CHL) fibroblast cells stably transfected with the human GIP receptor were cultured in DMEM tissue culture medium containing 10% (v/v) foetal bovine serum, 1% (v/v) antibiotics (100 U/ml penicillin, 0.1 mg/ml streptomycin). BRIN-BD11 cells were cultured using RPMI-1640 tissue culture medium containing 10% (v/v) foetal bovine serum, 1% (v/v) antibiotics (100 U/ml penicillin, 0.1 mg/ml streptomycin). Cells were maintained in sterile tissue culture flasks (Corning Glass Works, Sunderland, UK) at 37° C. in an atmosphere of 5% CO2 and 95% air using an LEEC incubator (Laboratory Technical Engineering, Nottingham, UK).
Acute studies of cyclic AMP generation. GIP receptor transfected CHL cells were seeded into 12-well plates (Nunc, Roskilde, Denmark) at a density of 1.0×10^5 cells per well. The cells were then allowed to grow for 48 hours before being loaded with tritiated adenine (2 μCi; TRK311, Amersham, Buckinghamshire, UK) and incubated at 37° C. for 6 hours in 1 ml DMEM, supplemented with 0.5% (w/v) […]. The cells were then washed twice with HBS buffer (130 mM NaCl, 20 mM HEPES, 0.9 mM NaHPO4, 0.8 mM MgSO4, 5.4 mM KCl, 1.8 mM CaCl2, 25 mM glucose, 25 μM phenol red, pH 7.4). […]

Row | Compound | insulin secretion from BRIN-BD11 cells (BRIN-BD11 cells) | remaining at 2 h, 2 mmol/l (DPP IV; 2 h) [%] | remaining at 8 h, 2 mmol/l (DPP IV; 8 h) [%] | remaining at 24 h, 2 mmol/l (DPP IV; 24 h) [%] | inhibition of GIP-stimulated cyclic AMP production (human GIP receptor)
1 | CC[C@H](C)[C@H](NC(=O)[C@H](CO)NC(=O)[C@H](Cc1ccc(O)cc1)NC(=O)[C@H](CC(=O)O)NC(=O)[C@H](CO)NC(=O)[C@@H](NC(=O)[C@H](Cc1ccccc1)NC(=O)[C@@H](NC(=O)CNC(=O)[C@H](CCC(=O)O)NC(=O)[C@H](C)NC(=O)[C@@H](N)Cc1ccc(O)cc1)[C@@H](C)O)[C@@H](C)CC)C(=O)N[C@@H](C)C(=O)N[C@@H](CCSC)C(=O)N[C@@H](CC(=O)O)C(=O)N[C@@H](CCCCN)C(=O)N[C@H](C(=O)N[C@@H](Cc1c[nH]cn1)C(=O)N[C@@H](CCC(N)=O)C(=O)N[C@@H](CCC(N)=O)C(=O)N[C@@H](CC(=O)O)C(=O)N[C@@H](Cc1ccccc1)C(=O)N[C@H](C(=O)N[C@@H](CC(N)=O)C(=O)N[C@@H](Cc1c[nH]c2ccccc12)C(=O)N[C@@H](CC(C)C)C(=O)N[C@@H](CC(C)C)C(=O)N[C@@H](C)C(=O)N[C@@H](CCC(N)=O)C(=O)N[C@@H](CCCCN)C(=O)NCC(=O)N[C@@H](CCCCN)C(=O)N[C@@H](CCCCN)C(=O)N[C@@H](CC(N)=O)C(=O)N[C@@H](CC(=O)O)C(=O)N[C@@H](Cc1c[nH]c2ccccc12)C(=O)N[C@@H](CCCCN)C(=O)N[C@@H](Cc1c[nH]cn1)C(=O)N[C@@H](CC(N)=O)C(=O)N[C@H](C(=O)N[C@H](C(=O)N[C@@H](CCC(N)=O)C(=O)O)[C@@H](C)O)[C@@H](C)CC)C(C)C)[C@@H](C)CC [GIP 1–42, reference compound] | prominent and dose-related stimulation of insulin secretion | – | – | – | –
2 | CCCCCCCCCCCCCCCC(=O)NCCCC[C@H](NC(=O)[C@H](Cc1c[nH]c2ccccc12)NC(=O)[C@H](CC(=O)O)NC(=O)[C@H](CC(N)=O)NC(=O)[C@H](CCCCN)NC(=O)[C@H](CCCCN)NC(=O)CNC(=O)[C@H](CCCCN)NC(=O)[C@H](CCC(N)=O)NC(=O)[C@H](C)NC(=O)[C@H](CC(C)C)NC(=O)[C@H](CC(C)C)NC(=O)[C@H](Cc1c[nH]c2ccccc12)NC(=O)[C@H](CC(N)=O)NC(=O)[C@@H](NC(=O)[C@H](Cc1ccccc1)NC(=O)[C@H](CC(=O)O)NC(=O)[C@H](CCC(N)=O)NC(=O)[C@H](CCC(N)=O)NC(=O)[C@H](Cc1c[nH]cn1)NC(=O)[C@@H](NC(=O)[C@H](CCCCN)NC(=O)[C@H](CC(=O)O)NC(=O)[C@H](CCSC)NC(=O)[C@H](C)NC(=O)[C@@H](NC(=O)[C@H](CO)NC(=O)[C@H](Cc1ccc(O)cc1)NC(=O)[C@H](CC(=O)O)NC(=O)[C@H](CO)NC(=O)[C@@H](NC(=O)[C@H](Cc1ccccc1)NC(=O)[C@@H](NC(=O)CNC(=O)[C@H](CCC(=O)O)NC(=O)[C@H](C)NC(=O)[C@H](Cc1ccc(O)cc1)NC(C)=O)[C@@H](C)O)[C@@H](C)CC)[C@@H](C)CC)[C@@H](C)CC)C(C)C)C(=O)N[C@@H](Cc1c[nH]cn1)C(=O)N[C@@H](CC(N)=O)C(=O)N[C@H](C(=O)N[C@H](C(=O)N[C@@H](CCC(N)=O)C(=O)O)[C@@H](C)O)[C@@H](C)CC [N-AcGIP(LysPAL^37)] | – | 100 | 100 | 100 | –
3 | YAPGTFISDYSIAMDKIHQQDFVNWLLAQKGKKNDWKHNITQ [(Pro^3)GIP] | least potent analogues in terms of insulin release | – | – | – | inhibited in dose-dependent fashion
